Reference: US7557123B2, “Heterocyclic compound and medicinal use thereof” (Kyoto Pharmaceutical Industries, Ltd., priority 2001, dated 2009)
Converted amounts (≈) assume the structure as drawn.

Columns and labels:
[1] = system: male KK-A^y mice; assay: Hypoglycemic and hypolipidemic activity in spontaneously diabetic KK-Ay mice; assay type: in vivo; conditions: 10 mg/kg/day orally for 4 consecutive days, plasma 24 hours after final administration, non-fasting, vs control group
Method: Blood was drawn under a non-fasting state from the tail vein of male KK-A^y mice, and the glucose and triglyceride levels of the plasma were measured using commercially available assay kits (glucose CII-test WAKO and triglyceride G-test WAKO, Wako Pure Chemical Industries, Ltd.). The mice were grouped (5 mice per group) into a control group and an administration group, such that the mean and standard deviation of the body weight and the plasma glucose and plasma triglyceride levels in each group were nearly the same. The test compounds (compounds of Examples 1, 2, 4, 8, 20, 22, 24, 27, 30, 33, 36, 37, 40, 45, 47, 52, 56, 58 and 64) were suspended in 5% gum arabic solution and administered (10 mg/kg/day) orally to the administration group for 4 consecutive days. The 5% gumarabic solution was orally administered to the control group. Blood was drawn under a non-fasting state from the tail vein 24 hours after the final administration and the glucose and triglyceride levels of the plasma were measured. The decrease in the plasma glucose and triglyceride levels was calculated from the following formula. Decrease (%)=[(mean of control group−mean of test compound administration group)/mean of control group]×100 Results

[2] = system: male db/db mice; assay: Hypoglycemic and hypolipidemic activity in db/db mice; assay type: in vivo; conditions: 3 mg/kg/day orally for 2 consecutive weeks, plasma 24 hours after final administration, non-fasting, vs control group
Method: Using db/db mice genetically showing high plasma glucose, hypertriglyceridemia, insulin resistance and obesity, the pharmacological activity of the test compounds of Examples 1, 2 and 20 was examined.
Blood was drawn under a non-fasting state from the tail vein of male db/db mice, the glucose level and triglyceride level of the plasma were measured using commercially available assay kits (glucose CII-test WAKO and triglyceride G-test WAKO, Wako Pure Chemical Industries, Ltd.). The mice were grouped (6 mice per group) into a control group and test compound (compounds of Examples 1, 2 and 20) administration group (3 mg/kg/day), such that the mean and standard deviation of the body weight and the plasma glucose and plasma triglyceride levels in each group were nearly the same. The test compound was suspended in 0.5% methylcellulose solution and administered orally for 2 consecutive weeks from the next day. The 0.5% methylcellulose solution was orally administered to the control group. Blood was drawn under a non-fasting state from the tail vein 24 hours after the final administration and the glucose and triglyceride levels of the plasma were measured. The decrease in the plasma glucose and triglyceride levels was calculated from the following formula. Decrease (%)=[(mean of control group−mean of test compound administration group)/mean of control group]×100 Results

[3] = system: male ICR mice; assay: Toxicity by repeat administration in ICR mice; assay type: in vivo; conditions: 30 and 100 mg/kg/day orally for 2 consecutive weeks, vs control group; for plasma volume: calculated from Evans blue concentration; for weight of the heart / weight of the liver: wet weight
Method: Using 7-week-old male ICR mice, toxicity by repeat administration was examined.
The mice were grouped (7 mice per group) into a control group and test compound (compounds of Examples 2 and 20) administration groups (30 and 100 mg/kg/day), such that the mean and the standard deviation of the body weight of the mice were nearly the same. The test compound was suspended in 0.5% methylcellulose solution and administered orally for 2 consecutive weeks from the next day. The 0.5% methylcellulose solution was orally administered to the control group. At 24 hours after the final administration, Evans blue (100 μg/mouse) was administered from the tail vein and, 5 min later, the blood was drawn from the orbital venous plexus with anesthesia. Using EDTA-added blood, hematocrit value and erythrocyte count were measured. Using the plasma, Evans blue concentration was measured, from which plasma volume was calculated. The liver and heart were removed and wet weight was measured.

[4] = system: female Wistar rats; assay: Toxicity by repeat administration in Wistar rats; assay type: in vivo; conditions: 30 and 100 mg/kg/day orally for 2 consecutive weeks, vs control group; for ALT (GPT) / AST (GOT): serum; for weight of the heart / weight of the liver / weight of the white fat around the uterus: wet weight
Method: Using 6-week-old female Wistar rats, toxicity by repeat administration was examined.
The rats were grouped (6 rats per group) into a control group and test compound (compounds of Examples 2 and 20) administration groups (30 and 100 mg/kg/day), such that the mean and the standard deviation of the body weight of the rats were nearly the same. The test compound was suspended in 0.5% methylcellulose solution and administered orally for 2 consecutive weeks from the next day. The 0.5% methylcellulose solution was orally administered to the control group. The rats were fasted for 16 hr from the last day of administration, anesthetized by intraperitoneal administration of pentobarbital sodium (50 mg/kg) 24 hr after the final administration and the blood was drawn. Using EDTA-added blood, hematocrit value and erythrocyte count were measured, and using serum, AST (GOT) and ALT (GPT) were measured. In addition, the white fat around the uterus, and the liver and heart were removed and the wet weights thereof were measured.

[5] = Solubility of the compound in water (buffer pH 7.0); assay type: physicochemical; conditions: 25 mg in 1.0 ml buffer pH 7.0, shaken at 25° C. for 1 hr, filtrate by HPLC
Method: The pulverized test compound (compounds of Examples 2, 20, 22, 24, 27, 30, 40 or 65, 25 mg) was added to a buffer (1.0 ml, pH 7.0) and the mixture was shaken at 25° C. for 1 hr and passed through a membrane filter. The concentration of the test compound in the filtrate was measured by high performance liquid chromatography.

CC(C)(C)N.CC=CC=CC(=O)N1Cc2cc(OCCc3nc(/C=C/CC(C)C)oc3C)ccc2C[C@H]1C(=O)O (stereo in doubt) [Example 20, tert-butylamine 2-(2,4-hexadienoyl)-7-{2-[5-methyl-2-(4-methyl-trans-1-penten-1-yl)oxazol-4-yl]ethoxy}-1,2,3,4-tetrahydroisoquinoline-(3S)-carboxylate]
Decrease (%) in glucose level [1]: 57.7%
Decrease (%) in triglyceride level [1]: 65.6%
Decrease (%) in glucose level [2]: 54.0%
Decrease (%) in triglyceride level [2]: 72.0%
plasma volume [3]: no significant difference
body weight [3]: no significant difference
erythrocyte count [3]: no significant difference
hematocrit value [3]: no significant difference
weight of the heart [3]: no significant difference
weight of the liver [3]: no significant difference
ALT (GPT) [4]: no significant difference
AST (GOT) [4]: no significant difference
erythrocyte count [4]: no significant difference
hematocrit value [4]: no significant difference
weight of the heart [4]: no significant difference
weight of the liver [4]: no significant difference
weight of the white fat around the uterus [4]: no significant difference
Solubility (mg/ml) [5]: 25 or above mg/ml

CC=CC=CC(=O)N1Cc2cc(OCCc3nc(/C=C/CCC)oc3C)ccc2C[C@H]1C(=O)O (stereo in doubt) [Example 2, 2-(2,4-hexadienoyl)-7-[2-(5-methyl-2-(trans-1-penten-1-yl)oxazol-4-yl)ethoxy]-1,2,3,4-tetrahydroisoquinoline-(3S)-carboxylic acid]
Decrease (%) in glucose level [1]: 40.3%
Decrease (%) in triglyceride level [1]: 40.5%
Decrease (%) in glucose level [2]: 57.2%
Decrease (%) in triglyceride level [2]: 78.1%
plasma volume [3]: no significant difference
body weight [3]: no significant difference
erythrocyte count [3]: no significant difference
hematocrit value [3]: no significant difference
weight of the heart [3]: no significant difference
weight of the liver [3]: no significant difference
ALT (GPT) [4]: no significant difference
AST (GOT) [4]: no significant difference
erythrocyte count [4]: no significant difference
hematocrit value [4]: no significant difference
weight of the heart [4]: no significant difference
weight of the liver [4]: no significant difference
weight of the white fat around the uterus [4]: no significant difference
Solubility [5]: 10000 µg/mL (≈ 21.5 mM)
